Results from ChEMBL document CHEMBL1126764, “Bicyclic thiazolidine lactam peptidomimetics of the dopamine receptor modulating peptide Pro-Leu-Gly-NH2” (J Med Chem, 1993).

Target: Dopamine receptor (Bos taurus) (UniProt Q95136+P20288)
Assay: Ability to enhance the binding of [3H]- ADTN to dopamine receptor from freshly dissected bovine caudate
Format: protein assay

Row | SMILES | Enhancement [%]
1 | NC(=O)[C@H]1CS[C@@H]2CC[C@@H](NC(=O)C3CCCN3)C(=O)N12 (some centres not stated) | 75
2 | NC(=O)[C@H]1CS[C@@H]2C[C@@H](NC(=O)C3CCCN3)C(=O)N12 (some centres not stated) | 200
